# Results: ChEMBL document CHEMBL3046056, “Design, synthesis, and biological activity of novel 4-(3,4-dimethoxyphenyl)-2-methylthiazole-5-carboxylic acid derivatives” (2004)
# Experiments:
# Assay type in all cases: functional
# Empoasca fabae [1] = assay: Insecticidal activity against Empoasca fabae (potato leafhopper) at 600 g ai/ha
# Phytophthora infestans [2] = assay: Fungicidal activity against tomato late blight disease-causing Phytophthora infestans at 375 g ai/ha
# Myzus persicae [3] = assay: Insecticidal activity against Myzus persicae (green peach aphid) at 600 g ai/ha
# Phytophthora infestans [4] = assay: Fungicidal activity against tomato late blight disease-causing Phytophthora infestans at 300 g ai/ha
# Myzus persicae [5] = assay: Insecticidal activity against Myzus persicae (green peach aphid) at 300 g ai/ha
# Empoasca fabae [6] = assay: Insecticidal activity against Empoasca fabae (potato leafhopper) at 300 g ai/ha
Structure (SMILES),Activity (Empoasca fabae [1]),Activity (Phytophthora infestans [2]),Activity (Myzus persicae [3]),Activity (Phytophthora infestans [4]),Activity (Myzus persicae [5]),Activity (Empoasca fabae [6])
C#CC(C)(CC)NC(=O)c1sc(C)nc1-c1ccc(OC)c(OC)c1 (stereo not drawn),0%,90%,20%,,,
COc1ccc(-c2nc(C)sc2C(N)=O)cc1OC,20%,0%,0%,,,
C#CCOC(=O)c1sc(C)nc1-c1ccc(OC)c(OC)c1,20%,0%,20%,,,
CCN(CC)C(=O)c1sc(C)nc1-c1ccc(OC)c(OC)c1,40%,0%,0%,,,
COc1ccc(C(=CC(=O)N2CCOCC2)c2ccc(Cl)cc2)cc1OC [DIMETHOMORPH],,,,100%,0%,0%
COc1ccc(-c2nc(C)sc2C(=O)O)cc1OC,20%,0%,0%,,,
COc1ccc(-c2nc(C)sc2C(=O)Nc2ccccc2)cc1OC,40%,0%,20%,,,
COc1ccc(-c2nc(C)sc2C(=O)OCC(C)C)cc1OC,20%,75%,20%,,,
COc1ccc(-c2nc(C)sc2C(=O)N2CCOCC2)cc1OC,20%,90%,20%,,,
COc1ccc(-c2nc(C)sc2C(=O)NCC#N)cc1OC,0%,0%,0%,,,
COc1ccc(-c2nc(C)sc2C(=O)N(C)OC)cc1OC,20%,50%,20%,,,
C#CC(C)(C)NC(=O)c1sc(C)nc1-c1ccc(OC)c(OC)c1,40%,0%,60%,,,
COc1ccc(-c2nc(C)sc2C(=O)NCCCn2ccnc2)cc1OC,0%,75%,0%,,,
CCN(C)C(=O)c1sc(C)nc1-c1ccc(OC)c(OC)c1,40%,0%,40%,,,
COC(=O)c1sc(C)nc1-c1ccc(OC)c(OC)c1,40%,0%,0%,,,
COc1ccc(/C(=C\C(=O)N2CCOCC2)c2ccc(F)cc2)cc1OC [FLUMORPH],,,,100%,0%,0%
